{
  "source": "patent US6867235B2",
  "about": "“Helianthrone derivatives as anti-cancer agents” (Yeda Research and Development Co. Ltd., priority 2000, dated 2005)",
  "key": {"[1]": {"tested_on": "SQ2 anaplastic squamous cell carcinoma", "experiment": "Tumor foci in BALB/c mice bearing SQ2 squamous cell carcinoma treated with dimethyl-TMH", "type": "in vivo", "settings": "for number of tumor foci / multifocal spread of the tumor: SQ2 tumor-bearing mice versus control", "protocol": "The effective cytocidal activity of dimethyl-TMH in vitro encouraged the evaluation of its safety and anti-tumoral efficacy profile in tumor-bearing mice. Experiments were carried out in mice bearing tumors derived from the SQ2 highly metastatic anaplastic squamous cell carcinoma (SCC) line. This tumor develops as multifocal centers that spread at the vicinity of the primary tumor and metastases develop approximately two months after cell inoculation. Treatments with 300-600 μM dimethyl-TMH/mouse, administered twice or three-times a week were initiated when the tumors reached 5-7 mm in diameter.\nWhen the primary tumors reached a diameter of 5 mm, therapy with 300 μM dimethyl-TMH/mouse, administered intraperitoneally twice per week, was initiated. Three weeks after the initiation of therapy, the number of tumor foci, which have developed at the primary tumor site, was recorded."}, "[2]": {"experiment": "Tolerability of intraperitoneal administration in mice", "type": "in vivo, BALB/c mice", "settings": "i.p. on a daily basis for one week"}, "[3]": {"tested_on": "human malignant glioblastoma cell lines", "experiment": "Photodynamic induction of cell death in glioblastoma cell lines with light", "type": "cell-based", "protocol": "Cell killing by dimethyl-TMH occurred at doses in which hypericin had no effect on the cultures. […] The mechanisms that operate in the dark were very different from those that mediate light-induced photosensitization. In the dark, cell death occurs approximately four days after the compound is administered, whereas the cells died within 2-3 hours with light.\nPhotodynamic (PD) stress is the level of phototoxicity inflicted upon target cells by photodynamic compounds and exposure to light. Light irradiation was performed from a fluorescent source of two parallel 40 Watts tubes placed at a fixed distance of 16 cm and measured to emit an incidence of 4 mWatt/cm^2. Light intensities were quantitated using the IL 1350 Radiometer/Photometer, from International Light Inc., U.S.A."}, "[4]": {"tested_on": "U251 human glioblastoma cells", "experiment": "Cell cycle and DNA content analysis (propidium iodide, FACS) in the dark", "type": "cell-based", "settings": "for cell cycle arrest: U251, dark", "text": "The cells were then stained with propidium iodide, washed with PBS and analyzed in a fluorescence activated cell sorter (FACS). A computer program arranged the DNA-related fluorescence as follows: the minimal amount of fluorescence is considered to be one whole set of cellular DNA related to the resting G1 phase. A double amount of fluorescence is considered to be G2 phase, in which the whole genome is duplicated following complete DNA synthesis, and the in-between amounts are considered to be the DNA synthetic S-phase, in which the total DNA synthesis is not yet completed."}, "[5]": {"tested_on": "anaplastic squamous cell carcinoma tumors", "experiment": "Tumor growth in mice bearing anaplastic squamous cell carcinoma tumors", "type": "in vivo, BALB/c mice", "settings": "200 μg/mouse every other day"}, "LAN5 neuroblastoma cells": {"tested_on": "LAN5 neuroblastoma cells", "experiment": "MTT cell viability in complete darkness, LAN5 cells", "type": "cell-based, human", "settings": "exposure at least 72 hours, 0.1-20 μM", "protocol": "(§1) Human HL-60 leukemic cells were grown in RPMI-1640 supplemented with 15% fetal calf serum, […] and 100 units/ml penicillin-streptomycin. Human erythroleukemia K-562 cells (derived from a chronic myeloid leukemia pateient) were grown in the same medium supplemented with 10% fetal calf serum. These cells and the human U251 glioblastoma, U87MG glioblastoma and LAN5 neuroblastoma cells used in the experiments are available from the ATCC. All cell lines were cultured in a humidified 5% CO2/95% air atmosphere at 37° C.\n(§2) Cell viability was monitored by the MTT assay which measures reduction of 3-(4,5-dimethylthiazol-2-yl)-2,5-diphenyl tetrazolium bromide to formasan by mitochondria of viable cells as described in Mossman, T., J. Immunogen., 21, 235-248 (1983). The cells are incubated with MTT for four hours at 37° C. and analyzed in an ELISA reader at 560 nm. The optical density of formasan generated by untreated cell cultures (O.D. control) is defined as one MTT unit. The number of MTT units in culture samples undergoing treatments is calculated as the ratio (O.D.sample−O.D.blank)/O.D.control).\n(§3) Three human malignant cell lines were evaluated to sensitivity to dimethyl TMH in vitro. […] The medium was aspirated, the adherent monolayer was washed with phosphate-buffered saline, and cell viability was monitored by the MTI assay."}, "[6]": {"tested_on": "human peripheral blood lymphocytes (PBL)", "experiment": "MTT viability of primary peripheral blood lymphocytes in the dark and with light", "type": "cell-based", "settings": "72 hours", "protocol": "as §2\nHuman peripheral blood lymphocytes (PBL) are non-proliferating cells in the absence of mitogenic stimuli. The effects of different doses of dimethyl-TMH on PBL were examined in the presence or absence of irradiation with polychromatic white light. PBL (post-mitotic) were plated (2×10^5 cells/well) in two separate round bottom 96-well plates (in triplicates). Dimethyl-TMH was added to the cultures. One plate was kept in the dark, and the other was exposed to polychromatic white light at a fluence rate of 8 mW/cm^2 for 30 min (a total of 14.4 J/cm^2). Both plates were then cultured at 37° C., 5% CO2 for 72 hours and cell viability was assayed by the MTT assay."}, "U87MG glioblastoma cells": {"tested_on": "U87MG glioblastoma cells", "experiment": "MTT cell viability in complete darkness, U87MG cells", "type": "cell-based, human", "protocol": "as §1, §2, §3"}, "tumor neovascularization": {"tested_on": "tumor neovascularization", "experiment": "Tumor neovascularization in tumor-bearing mice", "settings": "mouse, in vivo", "text": "These hitherto unknown attributes were detected while studying the effects of hypericin and of helianthrone derivatives on breast adenocarcinoma tumors induced in mice with the DA-3^HI cell line and on murine anaplastic squamous carcinoma tumors induced with the SQ-2 cell line. Both are highly metastatic tumors and if surgically resected after having reached a diameter larger than 5 mm, the mice will go on to develop metastases in the lungs and liver. The metastases cause death of the animals within approximately two months following surgery.\nBy preventing development of new blood vessels to supply a growing metastasis, the rapidly growing metastatic focus is deprived of nutrients and oxygen for its rapidly multiplying cells and the lesion degenerates."}, "[7]": {"tested_on": "SQ2 highly metastatic anaplastic squamous cell carcinoma", "experiment": "Survival of SQ2 squamous cell carcinoma-bearing mice treated with dimethyl-TMH", "type": "in vivo, BALB/c mice", "protocol": "In another experiment, BALB/c mice were inoculated with 5×10^5 cells of the SQ2 highly metastatic anaplastic squamous cell carcinoma line, intradermally in shaved backs. When the primary tumors reached a diameter of 3-4 mm, i.p. administration of dimethyl TMH 200 μg/mouse (400 μM/mouse) was initiated on day 7 after tumor cell inoculation and then administered twice weekly to the tumor-bearing mice 2× per week for six weeks (total of 12 doses). Animal survival was then followed. […] This appears to be the result of reduced metastatic growth as evident from Table 1 in Example 4 above."}, "[8]": {"tested_on": "U251 human glioblastoma cells", "type": "cell-based", "settings": "U251, complete darkness, exposure at least 72 hours, 0.1-20 μM", "protocol": "as §1, §2\nThree human malignant cell lines were evaluated to sensitivity to dimethyl TMH in vitro. […] The medium was aspirated, the adherent monolayer was washed with phosphate-buffered saline, and cell viability was monitored by the MTI assay. […]"}, "[9]": {"settings": "300 μM/mouse i.p. twice per week"}, "[10]": {"settings": "21 days after start of therapy, 300 μM/mouse i.p. twice per week"}},
  "data": [
    {"smiles": "COc1cc(OC)c2c3c(OC)cc(OC)c4c(=O)c5ccc(C)cc5c(c43)c3c4cc(C)ccc4c(=O)c1c23", "note": "[dimethyl-TMH, 10,13-dimethyl-1,3,4,6-tetramethoxy-helianthrone]", "values": [
      {"measurement": "toxicity of therapeutic doses to the animals", "setting": "[1]; [9]", "result": "non-toxic"},
      {"measurement": "treated mice in which the primary tumors hardened and fell off", "setting": "[1]; [9]", "result": 5},
      {"measurement": "number of mice with 1 focus", "setting": "[1]; [10]", "result": 8},
      {"measurement": "number of mice with 2 foci", "setting": "[1]; [10]", "result": 1},
      {"measurement": "number of mice with 3 foci", "setting": "[1]; [10]", "result": 0},
      {"measurement": "number of mice with 4 foci", "setting": "[1]; [10]", "result": 0},
      {"measurement": "number of tumor foci / multifocal spread of the tumor", "setting": "[1]", "result": "considerably reduced"},
      {"measurement": "number of tumor foci / multifocal spread of the tumor", "setting": "[1]; listed as dimethyl TMH", "result": "completely inhibited"},
      {"measurement": "adverse effect on the animals", "setting": "[2]", "result": "no adverse effect"},
      {"measurement": "photodynamic induction of cell death compared with hypericin", "setting": "[3]; treatment in conjunction with light", "result": "more potent than hypericin"},
      {"measurement": "time to cell death", "setting": "[3]; with light", "result": "2 to 3", "unit": "h"},
      {"measurement": "proportion of cells in the S-phase with duration of exposure", "setting": "[4]; 10 μM, 24, 48, 72 hours", "result": "increased steadily"},
      {"measurement": "cell cycle arrest", "setting": "[4]; 10 μM", "result": "arrest at mid-S phase"},
      {"measurement": "cell cycle arrest", "setting": "[4]; 20 μM", "result": "exclusive arrest at the S phase"},
      {"measurement": "phases of the cell replication cycle at which malignant cells are arrested", "setting": "[4]; glioblastoma and neuroblastoma cells", "result": "mid S and G2 phases"},
      {"measurement": "tumor growth compared to untreated tumor-bearing control mice", "setting": "[5]", "result": "significant inhibition of tumor growth"},
      {"measurement": "cell viability (MTT)", "setting": "LAN5 neuroblastoma cells", "result": "Cell viability was lost"},
      {"measurement": "effect on cell viability", "setting": "[6]; normal non-proliferating PBL, absence of light irradiation", "result": "no effect"},
      {"measurement": "LD50 (cell death after photosensitization)", "setting": "[6]; polychromatic white light 8 mW/cm2 for 30 min (14.4 J/cm2), MTT", "result": "approximately 0.65 μM"},
      {"measurement": "cell viability (MTT)", "setting": "U87MG glioblastoma cells; complete darkness, exposure at least 72 hours, 0.1-20 μM", "result": "Cell viability was lost"},
      {"measurement": "loss of cell viability compared with hypericin", "setting": "U87MG glioblastoma cells; in the dark", "result": "more effective than the treatment with hypericin"},
      {"measurement": "neovascularization of tumors", "setting": "tumor neovascularization", "result": "prevented neovascularization"},
      {"measurement": "prolongation of animal survival compared to untreated controls", "setting": "[7]; 200 μg/mouse (400 μM/mouse) i.p. twice weekly for six weeks (12 doses)", "result": "approximately 40.3%"},
      {"measurement": "primary tumor growth during the treatment", "setting": "[7]; 200 μg/mouse i.p. twice weekly for six weeks", "result": "continued to grow"},
      {"measurement": "cell viability (MTT)", "setting": "[8]", "result": "Cell viability was lost"}
    ]}
  ]
}
